Values joined by “and” are separate entries in the source; they are usually repeats but may differ in a detail not shown here. Equal values may be shown once. After the bases stand the sugars from the 5' end (letter, count) and the backbone: PS all phosphorothioate, else s phosphorothioate and o phosphodiester by linkage. Methylation of C is not given here. e = 2'-O-(2-methoxyethyl) (MOE); k = constrained ethyl (cEt); d = 2'-deoxy (DNA)
Columns and labels:
APOL1 = details: ASO
MALAT1 = details: ASO, A431, 0.005 µM

Row | Sequence | target mRNA inhibition (APOL1; A431, 0.25 µM) | target mRNA inhibition (APOL1; A431, 1 µM) | target mRNA inhibition (APOL1; A431, 2 µM) [%] | other results
1 | AAAGAACTCAAGTCAG (sugars k4 d9 k3, PS) | 61% and 82% | 83% and 90% | – | –
2 | AACACATCATTGGGTT (sugars k2 d4 e3 k2 d5, PS) | – | – | 43 | –
3 | AACACATCATTGGGTT (sugars k3 d4 k3 e1 d5, PS) | – | – | 58 | –
4 | AACTTTACCTCACCCT (sugars k4 d9 k3, PS) | 68% | 88% | – | target mRNA inhibition (APOL1; A431, 0.0625 µM): 35%
5 | AAGATTGGCTCTGGCT (sugars k2 d4 e3 k2 d5, PS) | – | – | 63 | –
6 | AAGATTGGCTCTGGCT (sugars kkddddkekekddddd, PS) | – | – | 37 | –
7 | AAGCTTTAAACTCAGG (sugars kkddddekekeddddd, PS) | 84% | 92% | 95 | target mRNA inhibition (APOL1; A431, 0.0156 µM): 20%; target mRNA inhibition (APOL1; A431, 0.0625 µM): 58%
8 | AAGCTTTAAACTCAGG (sugars kkkddddkekekdddd, PS) | – | – | 16 | –
9 | AAGGTTGTCCAGAGCT (sugars k4 d9 k3, PS) | 27% | 65% | – | target mRNA inhibition (APOL1; A431, 0.0625 µM): 28%
10 | AAGTATTGCCAGCTAA (sugars kekddddeekkddddd, PS) | – | – | 88 | –
11 | AAGTATTGCCAGCTAA (sugars kkddddekekeddddd, PS) | – | – | 49 | –
12 | AATATCAGAGTGTACC (sugars k4 d9 k3, PS) | 73% | 84% | – | target mRNA inhibition (APOL1; A431, 0.0625 µM): 51%
13 | AATTATGGAATTGCAG (sugars kdddddkekekddddd, PS) | – | – | 52 | –
14 | AATTCTATTAGAGGGC (sugars kkddddkekekddddd, PS) | – | – | 56 | –
15 | AATTTTATGGAACCTC (sugars k3 d10 k3, PS) | 74% | 90% | – | target mRNA inhibition (APOL1; A431, 0.0625 µM): 37%
16 | ACACATCATTGGGTTA (sugars kdddddkekekddddd, PS) | – | – | 47 | –
17 | ACACATCATTGGGTTA (sugars kekddddeekkddddd, PS) | – | – | 87 | –
18 | ACACATCATTGGGTTA (sugars kkddddekekeddddd, PS) | – | – | 64 | –
19 | ACACATCATTGGGTTA (sugars kkddddkdkdkddddd, PS) | – | – | 57 | –
20 | ACCCTCTTTATCCCCC (sugars k4 d9 k3, PS) | 82% and 65% | 92% and 81% | – | target mRNA inhibition (APOL1; A431, 0.0625 µM): 53% and 39%
21 | ACCCTTTTGGCACCTT (sugars k4 d9 k3, PS) | 79% and 76% | 92% and 89% | – | target mRNA inhibition (APOL1; A431, 0.0625 µM): 49%

Row | Sequence | target mRNA inhibition (APOL1; A431, 0.25 µM) | target mRNA inhibition (APOL1; A431, 1 µM) | target mRNA inhibition (APOL1; A431, 2 µM) [%] | other results
22 | ACGCAATGCTGACTTG (sugars kdddddkekekddddd, PS) | – | – | 71 | –
23 | ACGCAATGCTGACTTG (sugars kkdddddkekeddddd, PS) | – | – | 89 | –
24 | ACGCAATGCTGACTTG (sugars kkddddkdkdkddddd, PS) | – | – | 85 | –
25 | ACGCAATGCTGACTTG (sugars kkkddddkekeddddd, PS) | – | – | 87 | –
26 | ACGCAATGCTGACTTG (sugars kkkddddkekekdddd, PS) | – | – | 71 | –
27 | ACTTCTGTTAGATACA (sugars k4 d9 k3, PS) | 73% | 90% | – | target mRNA inhibition (APOL1; A431, 0.0625 µM): 38%
28 | ACTTTACATGCACGAT (sugars kkdddddddddekeke, PS) | 58% | 84% | – | target mRNA inhibition (APOL1; A431, 0.0156 µM): 8%; target mRNA inhibition (APOL1; A431, 0.0625 µM): 25%
29 | ACTTTATACCAGTGTC (sugars k3 d4 k3 e1 d5, PS) | – | – | 58 | –
30 | ACTTTTTCACCATAGC (sugars k4 d9 k3, PS) | 82% | 93% | – | target mRNA inhibition (APOL1; A431, 0.0625 µM): 53%
31 | AGATGGGTACTTCTGT (sugars k4 d9 k3, PS) | 88% | 93% | – | target mRNA inhibition (APOL1; A431, 0.0625 µM): 85%
32 | AGATGTGTTTAGGCAT (sugars k4 d9 k3, PS) | 85% | 95% | – | target mRNA inhibition (APOL1; A431, 0.0625 µM): 54%
33 | AGCTTTAAACTCAGGT (sugars k2 d4 e3 k2 d5, PS) | – | – | 93 | –
34 | AGCTTTAAACTCAGGT (sugars k3 d4 k3 e1 d5, PS) | – | – | 82 | –
35 | AGCTTTAAACTCAGGT (sugars kdddddkekekddddd, PS) | 80% | 92% | 95 | target mRNA inhibition (APOL1; A431, 0.0156 µM): 14%; target mRNA inhibition (APOL1; A431, 0.0625 µM): 46%
36 | AGCTTTAAACTCAGGT (sugars kkdddddkekeddddd, PS) | 79% | 92% | 94 | target mRNA inhibition (APOL1; A431, 0.0156 µM): 31%; target mRNA inhibition (APOL1; A431, 0.0625 µM): 53%
37 | AGCTTTAAACTCAGGT (sugars kkddddekekeddddd, PS) | – | – | 92 | –
38 | AGCTTTAAACTCAGGT (sugars kkddddkdkdkddddd, PS) | – | – | 86 | –
39 | AGCTTTAAACTCAGGT (sugars kkddddkekekddddd, PS) | – | – | 87 | –
40 | AGCTTTAAACTCAGGT (sugars kkkddddkdkdkdddd, PS) | – | – | 74 | –
41 | AGGGAAATGAACGCAA (sugars k4 d9 k3, PS) | 65% | 85% | – | target mRNA inhibition (APOL1; A431, 0.0625 µM): 38%
42 | AGTATTGCCAGCTAAG (sugars k2 d4 e3 k2 d5, PS) | – | – | 86 | –

Row | Sequence | target mRNA inhibition (APOL1; A431, 0.25 µM) | target mRNA inhibition (APOL1; A431, 1 µM) | target mRNA inhibition (APOL1; A431, 2 µM) [%] | other results
43 | AGTATTGCCAGCTAAG (sugars kkddddkdkdkddddd, PS) | – | – | 69 | –
44 | AGTATTGTTTTTGTGG (sugars kkddddekekeddddd, PS) | – | – | 89 | –
45 | AGTATTGTTTTTGTGG (sugars kkddddkdkdkddddd, PS) | – | – | 72 | –
46 | AGTTTTGTAAGTGCAA (sugars k3 d4 k3 e1 d5, PS) | 87% | 94% | 96 | target mRNA inhibition (APOL1; A431, 0.0156 µM): 15%; target mRNA inhibition (APOL1; A431, 0.0625 µM): 60%
47 | AGTTTTGTAAGTGCAA (sugars kkddddekekeddddd, PS) | 79% | 91% | 91 | target mRNA inhibition (APOL1; A431, 0.0156 µM): 25%; target mRNA inhibition (APOL1; A431, 0.0625 µM): 53%
48 | AGTTTTGTAAGTGCAA (sugars kkddddkdkdkddddd, PS) | 72% | 85% | 91 | target mRNA inhibition (APOL1; A431, 0.0156 µM): 16%; target mRNA inhibition (APOL1; A431, 0.0625 µM): 34%
49 | ATCAGATGGGTACTTC (sugars k2 d4 e3 k2 d5, PS) | – | – | 67 | –
50 | ATCAGATGGGTACTTC (sugars kdddddkekekddddd, PS) | – | – | 73 | –
51 | ATCAGATGGGTACTTC (sugars kkdddddkekeddddd, PS) | – | – | 83 | –
52 | ATCAGATGGGTACTTC (sugars kkddddkdkdkddddd, PS) | – | – | 78 | –
53 | ATCCTGGGCGGCGACA (sugars k4 d9 k3, PS) | 62% and 50% | 82% and 72% | – | target mRNA inhibition (APOL1; A431, 0.0625 µM): 35% and 28%
54 | ATTCAGAATTTCCACT (sugars k2 d4 e4 k2 d4, PS) | – | – | 64 | –
55 | ATTCAGAATTTCCACT (sugars k3 d4 k3 e1 d5, PS) | – | – | 89 | –
56 | ATTCAGAATTTCCACT (sugars kkddddkdkdkddddd, PS) | – | – | 79 | –
57 | ATTCTATTAGAGGGCT (sugars kkddddekekeddddd, PS) | – | – | 25 | –
58 | ATTCTATTAGAGGGCT (sugars kkddddkekekddddd, PS) | – | – | 46 | –
59 | ATTCTATTGGGCCTCA (sugars k4 d9 k3, PS) | 62% | 86% | – | target mRNA inhibition (APOL1; A431, 0.0625 µM): 28%
60 | ATTCTCATGGTACAGG (sugars k3 d4 k3 e1 d5, PS) | 72% | 88% | 93 | target mRNA inhibition (APOL1; A431, 0.0156 µM): 17%; target mRNA inhibition (APOL1; A431, 0.0625 µM): 48%
61 | ATTCTCATGGTACAGG (sugars k3 d5 k3 d5, PS) | – | – | 97 | –
62 | ATTCTCATGGTACAGG (sugars kkkddddkekeddddd, PS) | 73% | 83% | 94 | target mRNA inhibition (APOL1; A431, 0.0156 µM): 15%; target mRNA inhibition (APOL1; A431, 0.0625 µM): 41%
63 | ATTCTCATGGTACAGG (sugars kkkddddkekekdddd, PS) | – | – | 70 | –

Row | Sequence | target mRNA inhibition (APOL1; A431, 0.25 µM) | target mRNA inhibition (APOL1; A431, 1 µM) | target mRNA inhibition (APOL1; A431, 2 µM) [%] | other results
64 | CAACACATCATTGGGT (sugars kkddddekekeddddd, PS) | – | – | 80 | –
65 | CAAGGCTTTTGATGAC (sugars k4 d9 k3, PS) | 58% | 75% | – | target mRNA inhibition (APOL1; A431, 0.0625 µM): 28%
66 | CACATCATTGGGTTAT (sugars k2 d4 e4 k2 d4, PS) | – | – | 54 | –
67 | CACATCATTGGGTTAT (sugars k3 d4 k3 e1 d5, PS) | – | – | 78 | –
68 | CACATCATTGGGTTAT (sugars kkddddkekekkdddd, PS) | – | – | 34 | –
69 | CACCCTCTTTATCCCC (sugars k4 d9 k3, PS) | 76% and 82% | 90% | – | target mRNA inhibition (APOL1; A431, 0.0625 µM): 47% and 62%
70 | TTCTAACTTCTGCACC (sugars k3 d10 k3, PS) | – | – | – | target mRNA inhibition (MALAT1): 33%
71 | TTCTAATAGCAGCGGG (sugars k3 d10 k3, PS) | – | – | – | target mRNA inhibition (MALAT1): 59% and 40%
72 | TTCTTCGCCTTCCCGT (sugars k3 d10 k3, PS) | – | – | – | target mRNA inhibition (MALAT1): 66% and 49%
73 | TTGAATTACTTCCGTT (sugars k3 d10 k3, PS) | – | – | – | target mRNA inhibition (MALAT1): 54% and 35%
74 | TTGCCCTTCTATTGGT (sugars k3 d10 k3, PS) | – | – | – | target mRNA inhibition (MALAT1): 11%
75 | TTGCCTACCACTCTAA (sugars k3 d10 k3, PS) | – | – | – | target mRNA inhibition (MALAT1): 0%
76 | TTGGGAGTTACTTGCC (sugars k3 d10 k3, PS) | – | – | – | target mRNA inhibition (MALAT1): 70% and 73%
77 | TTGTCCTACTTTAAGC (sugars k3 d10 k3, PS) | – | – | – | target mRNA inhibition (MALAT1): 30%
78 | TTGTGAGGGAGGCAAA (sugars k3 d10 k3, PS) | – | – | – | target mRNA inhibition (MALAT1): 20%
79 | TTTACACCTCAGTACG (sugars k3 d10 k3, PS) | – | – | – | target mRNA inhibition (MALAT1): 35%
80 | TTTCCTCAAGCTCCGC (sugars k3 d10 k3, PS) | – | – | – | target mRNA inhibition (MALAT1): 54%
81 | TTTGAACCCCGTCCTG (sugars k3 d10 k3, PS) | – | – | – | target mRNA inhibition (MALAT1): 6%
82 | TTTTAAAAGATCGCCT (sugars k3 d10 k3, PS) | – | – | – | target mRNA inhibition (MALAT1): 33%
83 | TTTTTACCAACCACTC (sugars k3 d10 k3, PS) | – | – | – | target mRNA inhibition (MALAT1): 26%

From the OligoGym collection
